In US20240252677A1, “ONE-COMPONENT DELIVERY SYSTEM FOR NUCLEIC ACIDS” (The Trustees of the University of Pennsylvania, priority 2021, published 2024):

How the values were obtained:
HEK293T cells = assay: In vitro Luc-mRNA transfection, luciferase luminescence expression in HEK293T cells; type: cell-based, human; parameters: unit not given here
Experimental: In Vitro Transfection Activity of DNPs in Human Embrionic Kidney (HEK) 293T Cells: HEK293T cells were seeded into 96-well plates (20,000 cells/well/200 μL) and cultured for 24 h at 37° C. in 5% CO2 complete cell culture media. Screening experiments were performed with nonoptimized DNPs containing naked nucleoside-modified mRNA (Karikó, et al., Immunity 2005, 23, 165-175; Pardi, et al., Methods Mol. Biol. 2013, 969, 29-42), of molar mass 664,341 encoding firefly luciferase (mRNA-Luc). A constant concentration of mRNA-Luc of 125 ng/well was used. The transIT (TransIT-mRNA transfection Kit from Mirus Bio) and MC3-based LNPs (MC3: DLin-MC3-DMA, which is the FDA approved LNP for mRNA delivery) were used as positive controls for cell transfection at a concentration of mRNA-Luc of 125 ng/well, identical to that of the tested DNPs. Subsequently cells were cultured for 24 h, the medium was aspirated under reduced pressure by a glass pipette and cells were lysed with 30 μL/well of cell culture lysis reagent (Promega). The luminescence intensity corresponding to the luciferase protein expressed was characterized and analyzed.
In vitro mRNA Delivery: Human embryonic kidney (HEK) 293T cells (American Type Culture Collection) were cultured in Dulbecco's modified Eagle's medium (DMEM) supplemented with 10% inactivated fetal bovine serum (FBS) (Gemini Bio-Products), 2 mM L-glutamine and 100 U/mL penicillin/streptomycin (Life Technologies) (complete medium). For in vitro screening experiments, HEK293T cells were seeded into 96-well plates (20,000 cells/well/200 μL) and cultured for 24 h in at 37° C. and 5% CO2 in complete media. Cell were transfected with IAJDs with encapsulated naked nucleoside-modified mRNA encoding firefly luciferase (mRNA-Luc) with fixed concentration of mRNA-Luc, 125 ng per well. The transIT (TransIT®-mRNA Transfection Kit, Mirus Bio) was used as a positive control for cell transfection, accordingly per manufacturer protocol and added to cells at the concentration of mRNA-Luc, 125 ng per well, the same as for tested particles. Cells were further cultured for 24 h, then medium was aspirated, and cells were lysed with 30 μL/well of cell culture lysis reagent (Promega). For the characterization of luminescence intensity, 2.5 μL of the lysed cells was mixed with 10 μL of luciferase assay substrate and luminescence was analyzed using a MiniLumat LB 9506 luminometer (Berthold/EG&G; Wallac).
Luminescence characterization for in vitro transfection experiments was performed by determining the luminescence intensity for in vitro Luc-mRNA transfection experiments using a MiniLumat LB 9506 luminometer (Berthold/EG&G; Wallac).
For in vitro Luc-mRNA transfection screening experiments, human embryonic kidney 293 cells (HEK 293) were seeded into 96-well plates (20,000 cells/well/200 μL) and cultured for 18-20 hours at 37° C., 5% CO2 in complete Dulbecco's modified Eagle's medium (DMEM) supplemented with 2 mM L-glutamine (Life Technologies), 100 U/mL penicillin/streptomycin (Invitrogen) and 10% fetal bovine serum (FBS, Gemini Bio-Products). Cells were transfected with DNPs with encapsulated naked nucleoside-modified mRNA encoding firefly luciferase (Luc-mRNA) at constant concentration of Luc-mRNA, 125 ng per well. Luc-mRNA complexed with TransIT (TransIT®-mRNA Transfection Kit, Mirus Bio) or encapsulated in FDA approved MC3-based LNPs were used as positive controls for cell transfection, at the concentration of Luc-mRNA of 125 ng per well, the same as for tested DNPs. After transfection cells were further cultured at 37° C., 5% CO2 for 18-20 hours, then medium was aspirated and cells were lysed with luciferase cell culture lysis reagent (30 μL/well) (Promega, Madison, WI). […]

[1] = pKa measurements of individual IAJD molecules by titration; type: physicochemical; settings: ethanol saturated with NaCl, titrated with 0.1 M aqueous HCl, titration
Experimental: pKa measurements of individual IAJD Molecules was performed as follows. IAJD Molecules were first dissolved in ethanol (Sat. with NaCl) at a concentration of 1.5 mg/mL and the solution volume was 3 mL.
Then 0.1 M HCl solution was added to the above ethanol solution with an increment of 7.5 μL. The resulting pH after each addition of HCl solution was measured by an Thermo Scientific Orion Star A121 meter with Thermo Scientific Orion 8220BNWP pH probe. pKa was determined using the half equivalence point titration.

spleen = assay: In vivo mRNA delivery, IVIS imaging of organs: spleen; parameters: species or system mice; key to Organs with luminescence: spleen: strong: Strong meant the luminescence intensity in that organ was relatively high, compared to other organs; weak: Weak meant the luminescence intensity in that organ was relatively low, compared to other organs; settings: for Organs with luminescence: spleen (weak/strong): Table 14; for Organs with luminescence: spleen: Table 17, mice, IVIS, 4-6 h after injection, intensity relative to other organs
Experimental: (§1) The exposure time was 1 min.
(§2) Tissue luminescence signal was measured on the IVIS imaging system using an exposure time of 60 seconds using medium binning (binning=8) to ensure that the signal obtained was within operative detection range. […] Bioluminescence imaging was performed as described above.
(§3) Tissue luminescence signal was measured on the IVIS imaging system using a certain exposure time (60, 30 or 15 seconds) and medium binning (binning=8) to ensure that the signal obtained was within operative detection range.

lung = assay: In vivo mRNA delivery, IVIS imaging of organs: lung; parameters: species or system mice; key to Organs with luminescence: lung: strong: Strong meant the luminescence intensity in that organ was relatively high, compared to other organs; weak: Weak meant the luminescence intensity in that organ was relatively low, compared to other organs; settings: for Organs with luminescence: lung (weak/strong): Table 14; for Organs with luminescence: lung: Table 17, IVIS, 4-6 h after injection, intensity relative to other organs; for Organs with luminescence: lung / activity in lung (in words): mice; for activity in lung (in words): Luc-mRNA DNPs
Experimental: as §1, §2, §3

[2] = Table 15, individual IAJD molecule
[3] = HEK293T cells, Luc-mRNA 125 ng/well, n=3
[4] = Table 16, HEK 293T cells, 125 ng/well, n=3

| Compound | pKa [1, 2] | Luminescence (HEK293T cells; [3]) | pKa ([1]; individual IAJD molecules) | Organs with luminescence: lung (lung) | Luminescence (HEK293T cells; [4]) | also measured |
| --- | --- | --- | --- | --- | --- | --- |
| Diheptyl 5,5′-((5-(((4-(4-methylpiperazin-1-yl)butanoyl)oxy)methyl)-1,3-phenylene)bis(oxy)) dipentanoate [IAJD 85] |  |  |  |  |  | Luminescence (HEK293T cells; Acetate buffer 10 mM pH 4.0, CIAJD 4 mg/mL, CLuc-mRNA 0.05 mg/mL, HEK293T, 125 ng/well): 734; Luminescence (HEK293T cells; Acetate buffer 10 mM pH 4.0, CIAJD 4 mg/mL, CLuc-mRNA 0.10 mg/mL, HEK293T, 125 ng/well): 2,498; Luminescence (HEK293T cells; Citrate buffer 10 mM pH 3.0, CIAJD 4 mg/mL, CLuc-mRNA 0.05 mg/mL, HEK293T, 125 ng/well): 1,176 |
| CCCCCCCCCCCCOc1cc(COC(=O)CCCN2CCN(C)CC2)cc(OCCCCCCCCCCCC)c1OCCCCCCCCCCCC [IAJD 79, 3,4,5-Tris(dodecyloxy)benzyl 4-(4-methylpiperazin-1-yl)butanoate] | 6.25 | 27,615 |  |  |  | Organs with luminescence: spleen (weak/strong) (spleen; imaging 6 h after injection): spleen (strong); Organs with luminescence: lung (weak/strong) (lung; imaging 6 h after injection): Lung (weak), |
| CCCCCCCCCCCOc1cc(COC(=O)c2cc(OCCOCCOCCCC(=O)CCCN3CCCCC3)c(OCCOCCOCCOCc3ccccc3)c(OCCOCCOCCOC(=O)CCCN3CCCCC3)c2)cc(OCCCCCCCCCCC)c1 [IAJD 111] |  |  | 7.58 | Lung (strong), | 41 | Organs with luminescence: spleen (spleen): spleen (weak); activity in lung (in words) (lung): very high activity to lung |
| CCCCCCCCCCCCCCOc1cc(COC(=O)c2cc(OCCOCCOCCCC(=O)CCCN3CCCCC3)c(OCCOCCOCCOCc3ccccc3)c(OCCOCCOCCOC(=O)CCCN3CCCCC3)c2)cc(OCCCCCCCCCCC)c1 [IAJD 156] |  |  | 7.43 | Lung (strong) | 59 |  |
| CCCCCCCCCOc1cc(COC(=O)CCCN2CCN(C)CC2)cc(OCCCCCCCCC)c1 [IAJD 77, 3,5-Bis(nonyloxy)benzyl 4-(4-methylpiperazin-1-yl)butanoate] | 6.4 | 129 |  |  |  | Organs with luminescence: spleen (weak/strong) (spleen; imaging 5 h after injection): spleen (strong); Organs with luminescence: lung (weak/strong) (lung; imaging 5 h after injection): Lung (weak), |
| CCCCCCCCCCCCCCOc1cc(COC(=O)CCCN2CCN(C)CC2)cc(OCCCCCCCCCCCCCC)c1 [IAJD 74, 3,5-Bis(tetradecyloxy)benzyl 4-(4-methylpiperazin-1-yl)butanoate] | 6.32 | 3,926 |  |  |  | Organs with luminescence: spleen (weak/strong) (spleen; imaging 5 h after injection): spleen (strong); Organs with luminescence: lung (weak/strong) (lung; imaging 5 h after injection): Lung (weak), |
| CCCCCCCCCCCCOc1cc(COC(=O)CCCN2CCN(CCO)CC2)cc(OCCCCCCCCCCCC)c1 [IAJD 71, 3,5-Bis(dodecyloxy)benzyl 4-(4-(2-hydroxyethyl)piperazin-1-yl)butanoate] | 6.38 | 473,548 |  | Lung (weak), |  | Organs with luminescence: spleen (weak/strong) (spleen; imaging 5 h after injection): spleen (strong); Organs with luminescence: spleen (spleen): spleen (strong); Organs with luminescence: lung (weak/strong) (lung; imaging 5 h after injection): Lung (weak), |
| CCCCC(CC)COC(=O)CCCCOc1cc(COC(=O)CCCN2CCN(CCO)CC2)cc(OCCCCC(=O)OCC(CC)CCCC)c1 (stereo not shown) [IAJD 95] | 6.33 | 153,564 |  |  |  | Organs with luminescence: spleen (weak/strong) (spleen; imaging 6 h after injection): spleen (strong); Organs with luminescence: lung (weak/strong) (lung; imaging 6 h after injection): Lung (weak), |
| CCCCCCCCCCCCOc1cc(COC(=O)c2cc(OCCOCCOCCCC(=O)CCCN3CCCCC3)c(OCCOCCOCCOCc3ccccc3)c(OCCOCCOCCOC(=O)CCCN3CCCCC3)c2)cc(OCCCCCCCCCCCC)c1 [IAJD 110] |  |  | 7.64 | Lung (strong) | 47 | activity in lung (in words) (lung): very high activity to lung |
| CCCCCCCCCCCCCCCCCOc1cc(COC(=O)c2cc(OCCOCCOCCCC(=O)CCCN3CCCCC3)c(OCCOCCOCCOCc3ccccc3)c(OCCOCCOCCOC(=O)CCCN3CCCCC3)c2)cc(OCCCCCCCCCCC)c1 [IAJD 158] |  |  | 7.38 | Lung (strong) | 83 |  |
| CCCCCCCCCCCCCCCOc1cc(COC(=O)c2cc(OCCOCCOCCCC(=O)CCCN3CCCCC3)c(OCCOCCOCCOCc3ccccc3)c(OCCOCCOCCOC(=O)CCCN3CCCCC3)c2)cc(OCCCCCCCCCCC)c1 [IAJD 157] |  |  | 7.42 | Lung (strong) | 47 |  |
